Results reported in the NIST ThermoML archive (doi:10.1021/je060291c).

Experiment: wn = mass fraction of the nth substance listed
Conditions: Liquid, Pulse-echo method, w2 = 0.49

CC(F)(F)F [1,1,1-trifluoroethane] + FC(F)C(F)(F)F
speed of sound [m/s]
Conditions	253.22 K	258.15 K	265.62 K
1150 kPa	–	574.9	–
1160 kPa	598.8	–	–
1170 kPa	–	575.3	539.5
1190 kPa	–	575.7	–
1210 kPa	–	–	540.1
1260 kPa	599.7	576.3	540.5
1380 kPa	600.9	577.6	541.7
1500 kPa	602	578.8	543
1630 kPa	603.1	580	544.3
1750 kPa	604.2	581.2	545.7
2010 kPa	606.4	583.4	548.3
2250 kPa	608.7	585.8	550.8
2510 kPa	610.9	588.1	553.3
2750 kPa	613.1	590.3	555.9
3010 kPa	615.1	592.6	558.4
3500 kPa	619.3	597.1	563.3
4000 kPa	623.7	601.5	568.3
4500 kPa	627.9	606.1	572.9
5000 kPa	631.9	610.4	577.7
6010 kPa	639.9	618.6	586.7
7010 kPa	647.5	626.7	595.3
8000 kPa	655.1	634.7	603.7
9000 kPa	662.6	642.2	612.1
10000 kPa	669.8	649.7	620.3
12000 kPa	683.6	664	635.3
14000 kPa	697	677.9	–
16010 kPa	709.7	691.3	–
18000 kPa	722.2	704.1	–
20000 kPa	734.3	716.5	–
23000 kPa	751.6	734.2	–
26000 kPa	768.1	751.1	–
29010 kPa	783.7	767.3	–
32000 kPa	798.4	782.5	–
35000 kPa	812.8	797.1	–
40000 kPa	835.8	820.8	–
45000 kPa	857.8	843.3	–
50000 kPa	878.9	864.3	–
55000 kPa	899	884.5	–
60000 kPa	918.8	904.1	–
65000 kPa	937.2	923.1	–
